{
  "source": "patent US20200016277A1",
  "about": "“NANOPARTICLES FOR ACTIVE AGENT DELIVERY TO BRAIN CANCERS” (MUSC FOUNDATION FOR RESEARCH DEVELOPMENT, priority 2017, published 2020)",
  "test_system": "U87 cells",
  "assay": "Cytotoxicity of TMZ micelles (Guava ViaCount cell viability assay)",
  "experimental": "Three cytotoxicity experiments, using Guava Via-Count Assay and flow cytometry (EMD Millipore, MA, USA), were performed using increasing concentrations of free TMZ, MTMZ and PMTMZ over increasing time. Cells (30,000 cells per well) were plated in 24-well plates and incubated overnight at 37° C. with 5% CO2. A TMZ solution (1 mg ml^−1) in DMSO was prepared and stored at 4° C. The stock solution was diluted with alpha-MEM and used to prepare free TMZ at increasing concentrations of 0-100 04. Independently, both 1 μM and 10 04 samples of PMTMZ and MTMZ were prepared with alpha-MEM. The triplicate wells were treated with concentrations at a constant volume of 200 μl per well. After 24 h, cell viability was performed using Guava ViaCount Assay and flow cytometry (EMD Millipore). The remaining wells were retreated with the appropriate concentrations over a 10 day period. Viability data was collected and analyzed.",
  "data": [
    {"smiles": "Cn1nnc2c(C(N)=O)ncn2c1=O", "note": "[free TMZ, temozolomide]", "values": [
      {"measurement": "Cells killed (cell death)", "setting": "U87, 1 μM, between 1 and 5 days", "value": "approximately 4%"},
      {"measurement": "Cell death", "setting": "U87, 10 or 100 μM, between 24 and 72 h", "value": "~2", "unit": "%"}
    ]}
  ]
}
